Assays:
[1] = tested on: giant foxtail; experiment: Test A pre-/postemergence greenhouse test; format: in vivo, Setaria faberi; conditions: for Plant response rating, Foxtail, Giant: 0 to 100 scale where 0 is no effect and 100 is complete control; for Foxtail, Giant plant response rating: 0 to 100 scale
Procedure, shortened: (§1)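 Planting was into mixed loam soil and sand; preemergence treatment followed as a directed soil spray. Concurrently, emerged plants (one- to two-leaf, 2–10 cm) received postemergence applications of identically formulated compound (non-phytotoxic solvent, surfactant). After approximately ten days under greenhouse conditions, injury was judged by eye against untreated plants.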

[2] = tested on: yellow nutsedge; experiment: Test C pre-/postemergence test; format: in vivo, Cyperus esculentus
Procedure, shortened: (§2)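 Compounds in a non-phytotoxic solvent with surfactant applied preemergence to seeded pots and, at the same time, postemergence to plants 2–18 cm tall (1- to 4-leaf stage). Paddy tests: pots flooded to 3 cm, compound applied into the water, depth held throughout.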

[3] = tested on: woolly cupgrass; experiment: Test C pre-/postemergence test; format: in vivo, Eriochloa villosa
Procedure, shortened: as §2

[4] = tested on: morningglory; experiment: Test C pre-/postemergence test; format: in vivo, Ipomoea coccinea
Procedure, shortened: as §2

[5] = tested on: lambsquarters; experiment: Test C pre-/postemergence test; format: in vivo, Chenopodium album; conditions: for Lambsquarters plant response rating: preemergence, scale 0 (no effect) to 100 (complete control)
Procedure, shortened: as §2

[6] = tested on: morningglory; experiment: Test A pre-/postemergence greenhouse test; format: in vivo, Ipomoea spp.; conditions: for Plant response rating, Morningglory: 0 to 100 scale where 0 is no effect and 100 is complete control; for Morningglory plant response rating: 0 to 100 scale
Procedure, shortened: as §1

[7] = tested on: giant foxtail; experiment: Test C pre-/postemergence test; format: in vivo, Setaria faberii
Procedure, shortened: as §2

[8] = tested on: umbrella sedge; experiment: Test C flooded paddy test; format: in vivo, Cyperus difformis; conditions: Flood
Procedure, shortened: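 Pots were flooded to 3 cm above the soil surface at treatment, compound applied directly to the paddy water, and that depth held throughout. Plants were kept in a greenhouse for 13 to 15 days, then visually rated against untreated controls.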

[9] = tested on: Goosegrass; experiment: Test C pre-/postemergence test; format: in vivo, Eleusin indica
Procedure, shortened: as §2

[10] = tested on: downy brome; experiment: Test C pre-/postemergence test; format: in vivo, Bromus tectorum
Procedure, shortened: as §2

[11] = tested on: common ragweed; experiment: Test C pre-/postemergence test; format: in vivo, Ambrosia elation; conditions: for Plant response rating (0 to 100), Ragweed / Plant response rating, Ragweed: Postemergence; for Plant response rating, Ragweed: scale 0 to 100, 0 no effect, 100 complete control
Procedure, shortened: as §2

[12] = tested on: wheat; experiment: Test A pre-/postemergence greenhouse test; format: in vivo, Triticum aestivum; conditions: for Plant response rating, Wheat: 0 to 100 scale where 0 is no effect and 100 is complete control; for Wheat plant response rating: 0 to 100 scale
Procedure, shortened: as §1

[13] = tested on: johnsongrass; experiment: Test C pre-/postemergence test; format: in vivo, Sorghum halepense
Procedure, shortened: as §2

[14] = tested on: crabgrass; experiment: Test A pre-/postemergence greenhouse test; format: in vivo, Digitaria sanguinalis; conditions: for Plant response rating, Crabgrass, Large: 0 to 100 scale where 0 is no effect and 100 is complete control; for Crabgrass, Large plant response rating: 0 to 100 scale
Procedure, shortened: as §1

[15] = tested on: corn; experiment: Test C pre-/postemergence test; format: in vivo, Zea mays
Procedure, shortened: as §2

[16] = tested on: soybean; experiment: Test C pre-/postemergence test; format: in vivo, Glycine max
Procedure, shortened: as §2

[17] = tested on: cocklebur; experiment: Test C pre-/postemergence test; format: in vivo, Xanthium strumarium
Procedure, shortened: as §2

[18] = Postemergence, 500 g ai/ha, 0 is no effect, 100 is complete control
[19] = Preemergence, 125 g ai/ha, 0 no effect, 100 complete control
[20] = 62 g ai/ha, Preemergence, scale 0 to 100
[21] = 125 g ai/ha, preemergence, scale 0 (no effect) to 100 (complete control)
[22] = Postemergence, 125 g ai/ha, scale 0 to 100, 0 no effect, 100 complete control
[23] = Postemergence, 250 g ai/ha, scale 0 to 100, 0 no effect, 100 complete control
[24] = Preemergence, 31 g ai/ha, scale 0 to 100 (0 no effect, 100 complete control)
[25] = preemergence, 250 g ai/ha, scale 0 (no effect) to 100 (complete control)

CC(Oc1c(CS(=O)(=O)c2cccc[n+]2[O-])c(C(F)(F)F)nn1C)C(F)(F)F (stereo not shown) [Compound 82]
Plant response rating, Foxtail, Giant ([1]; Postemergence, 125 g ai/ha): 90 | Foxtail, Giant plant response rating [1, 18]: 90 | Foxtail, Giant plant response rating [1, 19]: 100 | Plant response rating, Foxtail, Giant ([1]; Preemergence, 500 g ai/ha): 100 | Nutsedge, Yellow plant response rating [2, 20]: 60 | Nutsedge, Yellow plant response rating [2, 21]: 75 | Plant response rating (0 to 100), Nutsedge, Yellow ([2]; Postemergence, 31 g ai/ha): 0 | Plant response rating (0 to 100), Nutsedge, Yellow ([2]; Postemergence, 62 g ai/ha): 0 | Plant response rating, Nutsedge, Yellow [2, 22]: 0 | Plant response rating, Nutsedge, Yellow [2, 23]: 0 | Plant response rating, Nutsedge, Yellow [2, 24]: 40 | Nutsedge, Yellow plant response rating [2, 25]: 100 | Cupgrass, Woolly plant response rating [3, 20]: 90 | Cupgrass, Woolly plant response rating [3, 21]: 90 | Plant response rating (0 to 100), Cupgrass, Woolly ([3]; Postemergence, 31 g ai/ha): 0 | Plant response rating (0 to 100), Cupgrass, Woolly ([3]; Postemergence, 62 g ai/ha): 0 | Plant response rating, Cupgrass, Woolly [3, 22]: 20 | Plant response rating, Cupgrass, Woolly [3, 23]: 50 | Plant response rating, Cupgrass, Woolly [3, 24]: 80 | Cupgrass, Woolly plant response rating [3, 25]: 98 | Morningglory plant response rating [4, 20]: 70 | Morningglory plant response rating [4, 21]: 98 | Plant response rating (0 to 100), Morningglory ([4]; Postemergence, 31 g ai/ha): 0 | Plant response rating (0 to 100), Morningglory ([4]; Postemergence, 62 g ai/ha): 0 | Plant response rating, Morningglory [4, 22]: 0 | Plant response rating, Morningglory [4, 23]: 0 | Plant response rating, Morningglory [4, 24]: 0 | Morningglory plant response rating [4, 25]: 100 | Lambsquarters plant response rating ([5]; 125 g ai/ha): 0 | Plant response rating (0 to 100), Lambsquarters ([5]; Postemergence, 31 g ai/ha): 0 | Plant response rating (0 to 100), Lambsquarters ([5]; Postemergence, 62 g ai/ha): 0 | Plant response rating, Lambsquarters [5, 23]: 0 | Lambsquarters plant response rating ([5]; 250 g ai/ha): 100 | Plant response rating, Morningglory ([6]; Postemergence, 125 g ai/ha): 40 | Morningglory plant response rating [6, 18]: 50 | Morningglory plant response rating [6, 19]: 60 | Plant response rating, Morningglory ([6]; Preemergence, 500 g ai/ha): 100 | Foxtail, Giant plant response rating [7, 20]: 85 | Foxtail, Giant plant response rating [7, 21]: 100 | Plant response rating (0 to 100), Foxtail, Giant ([7]; Postemergence, 31 g ai/ha): 0 | Plant response rating (0 to 100), Foxtail, Giant ([7]; Postemergence, 62 g ai/ha): 0 | Plant response rating, Foxtail, Giant [7, 22]: 40 | Plant response rating, Foxtail, Giant [7, 23]: 40 | Plant response rating, Foxtail, Giant [7, 24]: 70 | Foxtail, Giant plant response rating [7, 25]: 100 | Plant response rating, Sedge, Umbrella ([8]; 62 g ai/ha, scale 0 to 100 (0 no effect, 100 complete control)): 100 | Plant response rating, Sedge, Umbrella ([8]; 250 g ai/ha, scale 0 to 100, 0 no effect, 100 complete control, 13 to 15 days): 100 | Goosegrass plant response rating [9, 20]: 100 | Goosegrass plant response rating [9, 21]: 100 | Plant response rating (0 to 100), Goosegrass ([9]; Postemergence, 31 g ai/ha): 0 | Plant response rating (0 to 100), Goosegrass ([9]; Postemergence, 62 g ai/ha): 0 | Plant response rating, Goosegrass [9, 22]: 10 | Plant response rating, Goosegrass [9, 23]: 40 | Plant response rating, Goosegrass [9, 24]: 90 | Goosegrass plant response rating [9, 25]: 100 | Bromegrass, Downy plant response rating [10, 20]: 60 | Bromegrass, Downy plant response rating [10, 21]: 80 | Plant response rating (0 to 100), Bromegrass, Downy ([10]; Postemergence, 31 g ai/ha): 0 | Plant response rating (0 to 100), Bromegrass, Downy ([10]; Postemergence, 62 g ai/ha): 0 | Plant response rating, Bromegrass, Downy [10, 22]: 0 | Plant response rating, Bromegrass, Downy [10, 23]: 0 | Plant response rating, Bromegrass, Downy [10, 24]: 50 | Bromegrass, Downy plant response rating [10, 25]: 100 | Ragweed plant response rating [11, 20]: 0 | Ragweed plant response rating [11, 21]: 100 | Plant response rating (0 to 100), Ragweed ([11]; 31 g ai/ha): 0 | Plant response rating (0 to 100), Ragweed ([11]; 62 g ai/ha): 30 | Plant response rating, Ragweed ([11]; 125 g ai/ha): 35 | Plant response rating, Ragweed ([11]; 250 g ai/ha): 50 | Ragweed plant response rating [11, 25]: 100 | Plant response rating, Wheat ([12]; Postemergence, 125 g ai/ha): 30 | Wheat plant response rating [12, 18]: 60 | Wheat plant response rating [12, 19]: 30 | Plant response rating, Wheat ([12]; Preemergence, 500 g ai/ha): 70 | Johnsongrass plant response rating [13, 20]: 80 | Johnsongrass plant response rating [13, 21]: 80 | Plant response rating (0 to 100), Johnsongrass ([13]; Postemergence, 31 g ai/ha): 0 | Plant response rating (0 to 100), Johnsongrass ([13]; Postemergence, 62 g ai/ha): 0 | Plant response rating, Johnsongrass [13, 22]: 10 | Plant response rating, Johnsongrass [13, 23]: 40 | Plant response rating, Johnsongrass [13, 24]: 40 | Johnsongrass plant response rating [13, 25]: 100 | Plant response rating, Crabgrass, Large ([14]; Postemergence, 125 g ai/ha): 80 | Crabgrass, Large plant response rating [14, 18]: 90 | Crabgrass, Large plant response rating [14, 19]: 80 | Plant response rating, Crabgrass, Large ([14]; Preemergence, 500 g ai/ha): 100 | Corn plant response rating [15, 20]: 40 | Corn plant response rating [15, 21]: 70 | Plant response rating (0 to 100), Corn ([15]; Postemergence, 31 g ai/ha): 0 | Plant response rating (0 to 100), Corn ([15]; Postemergence, 62 g ai/ha): 0 | Plant response rating, Corn [15, 22]: 0 | Plant response rating, Corn [15, 23]: 0 | Plant response rating, Corn [15, 24]: 40 | Corn plant response rating [15, 25]: 80 | Soybean plant response rating [16, 20]: 30 | Plant response rating (0 to 100), Soybean ([16]; Postemergence, 31 g ai/ha): 0 | Plant response rating (0 to 100), Soybean ([16]; Postemergence, 62 g ai/ha): 0 | Plant response rating, Soybean [16, 22]: 0 | Plant response rating, Soybean [16, 23]: 20 | Plant response rating, Soybean [16, 24]: 0 | Soybean plant response rating [16, 25]: 70 | Cocklebur plant response rating [17, 20]: 0 | Cocklebur plant response rating [17, 21]: 0 | Plant response rating (0 to 100), Cocklebur ([17]; Postemergence, 31 g ai/ha): 0 | Plant response rating (0 to 100), Cocklebur ([17]; Postemergence, 62 g ai/ha): 0 | Plant response rating, Cocklebur [17, 22]: 0 | Plant response rating, Cocklebur [17, 23]: 0 | Plant response rating, Cocklebur [17, 24]: 0 | Cocklebur plant response rating [17, 25]: 0

From patent US20100298141A1, “SUBSTITUTED PYRIDINE N-OXIDE HERBICIDES” (E. I. DU PONT DE NEMOURS AND COMPANY, priority 2007, published 2010)
